Patent US10174078B2, “Keratan sulfate specific transporter molecules” (PHI PHARMA SA, priority 2014, dated 2019)
Square brackets hold non-standard residues; d marks the D form. Ends that are not written are not given here. Peptide text beside a SMILES is read from it. 3'AdT = not defined here

Key:
keratan-sulfate (KS) = assay: modified ELISA: binding of peptides to plate-coated keratan-sulfate; details: plates coated with 1 mg/ml KS, 1 mg/ml peptide, 1 hour at room temperature
Experimental: The binding of the seven-mer peptides of the invention to KS as predicted by the models, in particular, as compared to the binding to other proteoglycans was tested using a modified ELISA protocol. ELISA plates were coated overnight with 1 mg/ml of heparin sulfate (HS), chondroitin-4-sulfate (C4S), chondroitin-6-sulfate (C6S) or keratan-sulfate (KS) in PBS. The wells were then washed with PBS and incubated for 1 hour at room temperature with 1 mg/ml of an exemplary peptide of the invention having the sequence RYKvRIK (“RYK-KS”; SEQ ID NO:7) or a standard TAT peptide. The plates were then thoroughly washed with PBS and subsequently photographed with a LUMASCOPE™ luminescent microscope. Images were then quantified using the ImageJ software (FIG. 4).
The same modified ELISA protocol was used to examine the impact of modifying the freely-selectable positions 2, 4 and 6 on the specific binding to KS.
The impact of sequence variation on specific binding was also investigated with select peptides using the above described modified ELISA.

MDCK cells = assay: viability of MDCK cultures by trypan blue exclusion after 96 hour incubation with BAM-conjugate; type: cell-based; details: 0.5 μM to 10 μM tested
Experimental: The activity of peptides of the invention as targeting moieties was tested in vitro in preliminary studies using cells lines expressing KS. The nucleoside analog 3′ amino deoxythymidine (3′AdT) was conjugated to the amino-terminus of the peptide “RYRI” (RYKvRlK (SEQ ID NO:7)) using a single D-Glu residue (3′AdT-e-RYRI).
Confluent cultures of MDCK were passaged at 1/20 dilution and exponentionally growing cells were incubated for 96 hours with concentrations of the nucleoside analog conjugates ranging from 0.5 μM to 10 μM. Viability was subsequently assessed using trypan blue exclusion.

[1] = estimation of in vivo stability: incubation of peptides with fetal calf serum; type: in vitro ADME; details: 37° C.; for degradation in fetal calf serum: 6 hr; for remaining at 6 h: fetal calf serum, read-out: stable at 6 hours
Experimental: In vivo stability was estimated by mixing peptides with fetal calf serum and incubating at 37° C. for 6 hr. Samples were tested at both 0 and 6 hours.

| Compound | binding to KS (keratan-sulfate (KS)) | degradation in fetal calf serum [1] | other results |
| --- | --- | --- | --- |
| RYKvRPKYF (RYK[dV]RPKYF) [control peptide with proline at position 6] | eliminated binding activity | – | – |
| D-linked conjugate: 3′AdT conjugated to the amino-terminus of the peptide RYRI (RYKvRIK) by a single D-Glu residue ({3'AdT}-[dE]RYK[dV]RIK; reading uncertain; also: printed as RYKvRIK) | – | – | concentrations with substantial effects on viability (MDCK cells): ≥ 0.5 µM |
| RYKvFIKPRh (RYK[dV]FIKPR[dH]) | eliminated binding activity | – | – |
| RRRRRRRRR [pure arginine 9-mer] | increases in binding that were likely non-selective | – | – |
| CC[C@H](C)[C@H](N)C(=O)N[C@@H](CCCNC(=N)N)C(=O)N[C@H](C(=O)N[C@H](CCCCN)C(=O)N[C@H](C(=O)N[C@H](CCCNC(=N)N)C(=O)N[C@H](C(=O)N[C@@H](CCCCN)C(=O)O)[C@@H](C)CC)[C@@H](C)CC)[C@@H](C)CC [IRIkIrIK] (HELM PEPTIDE1{I.R.I.[dK].I.[dR].I.K}$$$$V2.0; N-terminus and C-terminus assumed) | – | no degradation | remaining at 6 h [1]: 100% |
| RKKRRQRR (Artificial TAT control peptide) [standard TAT peptide] | increases in binding that were likely non-selective | – | – |
| RPKHRPK [RPKHRPK] | – | completely degraded | – |
| CC[C@H](C)[C@H](NC(=O)[C@H](CCCNC(=N)N)NC(=O)[C@H](NC(=O)[C@H](CCCCN)NC(=O)[C@H](Cc1ccc(O)cc1)NC(=O)[C@@H](N)CCCNC(=N)N)C(C)C)C(=O)N[C@@H](CCCCN)C(=O)O [RYK-KS, RYKvRIK] (HELM PEPTIDE1{R.Y.K.[dV].R.I.K}$$$$V2.0; N-terminus and C-terminus assumed) | – | no degradation | remaining at 6 h [1]: 100% |
